# Tests used:
# Carbonic anhydrase 12 = Carbonic anhydrase 12 (Homo sapiens, UniProt O43570); experiment: Binding affinity to human carbonic anhydrase 12 by stopped flow CO2 hydration method
# Carbonic anhydrase 9 = Carbonic anhydrase 9 (Homo sapiens, UniProt Q16790); experiment: Binding affinity to human carbonic anhydrase 9 by stopped flow CO2 hydration method
# Carbonic anhydrase 1 = Carbonic anhydrase 1 (Homo sapiens, UniProt P00915); experiment: Binding affinity to human carbonic anhydrase 1 by stopped flow CO2 hydration method
# Carbonic anhydrase 2 = Carbonic anhydrase 2 (Homo sapiens, UniProt P00918); experiment: Binding affinity to human carbonic anhydrase 2 by stopped flow CO2 hydration method
# Sequence of Carbonic anhydrase 1 (P00915 whole entry): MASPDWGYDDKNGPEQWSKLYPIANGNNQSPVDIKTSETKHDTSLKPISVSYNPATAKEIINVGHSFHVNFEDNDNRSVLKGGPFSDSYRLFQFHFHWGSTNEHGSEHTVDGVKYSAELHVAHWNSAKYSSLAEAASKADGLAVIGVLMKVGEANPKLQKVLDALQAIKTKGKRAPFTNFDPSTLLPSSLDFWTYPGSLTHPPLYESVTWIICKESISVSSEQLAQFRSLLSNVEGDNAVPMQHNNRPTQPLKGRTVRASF
# Sequence of Carbonic anhydrase 12 (O43570 whole entry): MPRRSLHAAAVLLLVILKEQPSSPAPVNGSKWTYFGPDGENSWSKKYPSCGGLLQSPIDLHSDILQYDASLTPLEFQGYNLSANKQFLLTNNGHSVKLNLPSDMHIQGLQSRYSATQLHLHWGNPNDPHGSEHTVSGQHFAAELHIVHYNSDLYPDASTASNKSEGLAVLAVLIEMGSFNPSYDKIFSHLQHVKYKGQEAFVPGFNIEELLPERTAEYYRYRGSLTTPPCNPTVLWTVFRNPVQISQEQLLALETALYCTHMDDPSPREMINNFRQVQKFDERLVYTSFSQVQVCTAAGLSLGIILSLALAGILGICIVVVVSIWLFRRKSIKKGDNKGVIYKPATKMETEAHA
Structure (SMILES),Ki (Carbonic anhydrase 12),Ki (Carbonic anhydrase 9),Ki (Carbonic anhydrase 1),Ki (Carbonic anhydrase 2)
Cc1c(CC(=O)O)c(=O)oc2cc3occ(-c4ccc(Cl)cc4)c3cc12,,94.7 nM,> 10 µM,> 10 µM
Cc1c(CC(=O)Nc2ccc(S(N)(=O)=O)cc2)c(=O)oc2cc3occ(-c4ccc(Cl)cc4)c3cc12,,17.8 nM,6.83 µM,0.0551 µM
Cc1c(CC(=O)Nc2ccc(S(N)(=O)=O)cc2)c(=O)oc2cc3occ(-c4ccccc4)c3cc12,,16.5 nM,7.02 µM,0.0466 µM
Cc1c(CC(=O)O)c(=O)oc2cc3occ(-c4ccc(F)cc4)c3cc12,7.4 nM,17.7 nM,> 10 µM,> 10 µM
COC(=O)Cc1c(C)c2ccc(OCC(=O)c3ccc(C)cc3)cc2oc1=O,,123 nM,> 10 µM,> 10 µM

# More lines, in order of falling Ki (Carbonic anhydrase 9), values ahead:
Ki (Carbonic anhydrase 12),Ki (Carbonic anhydrase 9),Ki (Carbonic anhydrase 1),Ki (Carbonic anhydrase 2),Structure (SMILES)
,108 nM,7.15 µM,0.0795 µM,Cc1c(CC(=O)Nc2ccc(S(N)(=O)=O)cc2)c(=O)oc2cc3occ(-c4ccc(F)cc4)c3cc12
,91.6 nM,7.07 µM,0.56 µM,Cc1ccc(-c2coc3cc4oc(=O)c(CC(=O)Nc5ccc(S(N)(=O)=O)cc5)c(C)c4cc23)cc1
,89.7 nM,> 10 µM,> 10 µM,COC(=O)Cc1c(C)c2ccc(OCC(=O)c3ccccc3)cc2oc1=O
,84.7 nM,> 10 µM,> 10 µM,COC(=O)Cc1c(C)c2ccc(OCC(=O)c3ccc(F)cc3)cc2oc1=O
,23.6 nM,> 10 µM,> 10 µM,COC(=O)Cc1c(C)c2ccc(OCC(=O)c3ccc(Cl)cc3)cc2oc1=O
,23 nM,> 10 µM,> 10 µM,Cc1ccc(-c2coc3cc4oc(=O)c(CC(=O)O)c(C)c4cc23)cc1
9.4 nM,17.5 nM,> 10 µM,> 10 µM,Cc1c(CC(=O)O)c(=O)oc2cc3occ(-c4ccccc4)c3cc12
